The nature of data set [1]: Luminescence screen of OgLuc variants in lysed E. coli cells. The format is biochemical. To be noted: QC27-9a versus C1+A4E. As to the method:
Resulting libraries were expressed in E. coli and primarily screened with a robotic system for OgLuc variants having increased light output (i.e., increased luminescence, increased brightness, or increased light emission) or a change in relative specificity compared to the corresponding starting OgLuc variant. The robotic primary screen was conducted as follows: individual colonies from the generated library were used to inoculate minimal media in 96-well plates and grown at 37° C. for 17 to 20 hrs (“M1 culture”). The M1 culture was diluted 1:20 with fresh minimal media and grown at 37° C. for 17-20 hrs (“M2 culture”). […] The use of the different induction media was determined based on the luminescence generated between C1+A4E and the novel coelenterazines, i.e., the induction media containing rhamnose and glucose were used with novel coelenterazines that generated less luminescence with C1+A4E compared to the other novel coelenterazines with C1+A4E.
Luminescence measurements for each variant were taken 3 min after reagent addition and relative luminescence unit (RLU) values were normalized to an average of 8 control wells of the corresponding starting OgLuc variant for each plate. […]

Data set [2] deals with HEK293 cells. As to the kind of experiment: Toxicity of coelenterazines in HEK293 cells (CELLTITER-GLO). To be noted: 24 hrs after compound addition.
For data set [3], the target named is T1, OgLuc (Oplophorus gracilirostris, UniProt Q9GV45, A31E/A60K/A81I/F95Y/I117V/L99Q/M102K/N193R/P142E/Q151K/Q38R/Q45L/V71I/Y165I).
T1 construct: 10 μL of purified 9B8, L27V or firefly luciferase (Luc2) enzyme; made in house
T1 sequence (Q9GV45 other isoform, or with tags, fused parts or gaps with the stated changes): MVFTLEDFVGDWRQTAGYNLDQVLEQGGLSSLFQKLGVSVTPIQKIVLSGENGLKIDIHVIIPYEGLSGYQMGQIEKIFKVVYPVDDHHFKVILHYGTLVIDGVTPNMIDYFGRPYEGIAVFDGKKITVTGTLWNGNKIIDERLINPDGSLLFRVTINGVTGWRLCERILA
As to the kind of experiment: LOPAC library inhibition screen. The format is biochemical. The following applies: preliminary LOPAC screen with 9B8 variant, 20 μM substrate. As to the method:
To determine the susceptibility of the OgLuc variants to off-target interactions, the activity of the 9B8 and L27V variants was screened against a LOPAC (library of pharmacologically active compounds) library. A LOPAC 1280 library (Sigma) was prepared by diluting the compounds to 1 mM in DMSO. On the day of the assay, the compounds were diluted to 20 μM in 1×PBS, and 10 μL transferred to a 96-well, white plate. To each well, 10 μL of purified 9B8, L27V or firefly luciferase (Luc2) enzyme diluted 10^−4 in Glo Lysis Buffer (Promega Corp.) was added and incubated at room temperature for 2 min. […] For assaying firefly luciferase, the BRIGHT-GLO™ Assay reagent (Promega Corp.) was used according to the manufacturer's protocol. As a negative control, 8 wells of each plate contained 1×PBS+2% glycerol. As a positive control, 8 wells of each plate contained 2 mM Suramin in 2% DMSO or 2 mM luciferase inhibitor 1 in 2% DMSO (Calbiochem).

The subject of data set [4] is HEK293 cells. The following applies: human, 24 h.
In data set [5] the target is T2, L27V02 enzyme (Oplophorus gracilirostris, UniProt Q9GV45, A31E/A60N/A81I/F95D/I117V/K70R/L54V/L99Q/M102K/N193R/P142E/Q151K/Q38R/Q45L/V71I/Y165I).
T2 construct: The N-terminus of the OgLuc variant L27V is methionine, valine and phenylalanine, i.e., MVF; made in house
T2 sequence (Q9GV45 28-196 with tags or gaps with the stated changes limits assumed, one chain of several): as the sequence (Q9GV45 other isoform, or with tags, fused parts or gaps with the stated changes) above, with L29V, K35N, K45R, Y70D counted along it
The data set can be described thus: Luminescence of compounds with purified L27V02 enzyme. To be noted: 20 μM compound, 36 pM L27V02, pH 7, 3 min. The format is biochemical. As to the method: Compounds PBI-4525, PBI-4540 and PBI-4541 were screened for their ability to detect luminescence. […] The assay reagent was then mixed with 36 pM purified L27V02 enzyme (described in Example 25B), in DMEM without Phenol Red and 0.1% PRIONEX®. As a control, assay buffer with 20 μM PBI-3939 or PBI-4528 was used. Luminescence was measured as previously described 3 min after the assay reagent was added to the enzyme mixture.

In data set [6] the test system is HEK293 cells. The data set can be described thus: Live cell luminescence in HEK293 cells. The format is cell-based, human. The following applies: HEK293 cells expressing 9B8 opt, 60 μM. As to the method:
A. The use of OgLuc variants and PBI-3939 in live cells was examined. HEK293 cells were plated in 96-well plates at 15,000 cells/well and grown overnight, at 37° C. The following day, the cells were transiently transfected using TRANSIT®-LT1 in 3 replicates with 100 ng of hRL or 9B8 opt in pF4Ag and grown overnight at 37° C. The following day the growth media was removed and replaced with media containing 60 μM VIVIREN™ Live Cell Substrate (Promega Corp.), 60 μM ENDUREN™ Live Cell Substrate (Promega Corp.), or 60 μM PBI-3939 for both hRL and 9B8 opt transfected cells. Non-transfected cells were used as background control. The plate was incubated at 37° C. during the course of one day and periodically measured on a TECAN® GENIOS™ Pro luminometer, i.e., 11 times over the course of 24 hrs.

Data set [7] has as its target OgLuc variant L27V (Oplophorus gracilirostris, UniProt Q9GV45, A31E/A60N/A81I/F95D/I117V/K70R/L54V/L99Q/M102K/N193R/P142E/Q151K/Q38R/Q45L/V71I/Y165I). To be noted: approximately 20 pM L27V, pH 6, 3 min at 22° C. How it is done: To determine the Km of PBI-3939, the OgLuc variant L27V (described in Example 26) was purified via HALOTAG® fusion using the HALOTAG® Protein Purification System according to the manufacturer's instructions and diluted in DMEM without Phenol Red and 0.1% PRIONEX®. 50 μL assay buffer (100 mM MES pH 6, 35 mM Thiourea, 0.5% TERGITOL® NP-9 (v/v), 1 mM CDTA, 2 mM DTT and 150 mM KCl) with varying amounts of PBI-3939 was added to 50 μL diluted enzyme (approximately 20 pM final enzyme concentration), and luminescence measured at 3 min at 22° C.

Data set [8] has as its target T3, OgLuc variant 9B8 opt (Oplophorus gracilirostris, UniProt Q9GV45, A31E/A60K/A81I/F95Y/I117V/L99Q/M102K/N193R/P142E/Q151K/Q38R/Q45L/V71I/Y165I).
T3 construct: made in house; host or cells: E. coli (crude lysate)
The data set can be described thus: Multiplex assay with red click beetle luciferase and 9B8 opt (modified DUAL-GLO). The format is biochemical. As to the method: A. Lysates of E. coli expressing the variant 9B8 opt were prepared as previously described in Example 27 and diluted 1000-fold in DMEM without phenol red+0.1% PRIONEX®. Luminescence from a sample containing 6.3 μg/mL of purified red click beetle luciferase and E. coli lysate expressing the variant 9B8 opt was detected using a modified DUAL-GLO® Luciferase Assay System (Promega Corp.). DUAL-GLO® STOP&GLO® Reagent containing 20 μM coelenterazine-h and DUAL-GLO® STOP&GLO® Reagent containing 20 μM PBI 3939 were used, according to the manufacturer's protocol, to detect the red click beetle luciferase and OgLuc variant 9B8 luciferase from a single sample. Three replicates were performed.
Luminescence was detected on a Turner MODULUS™ luminometer. […] The standard deviation (“+/−”) and coefficient of variance (“CV”) are also shown. A “no coelenterazine” control was performed to illustrate the amount of quenching of the red click beetle signal by the DUAL-GLO® STOP&GLO® Reagent of the DUAL-GLO® Luciferase Assay System in the absence of coelenterazine. The “no coelenterazine” control yielded a 349-fold quench.

Data set [9] relates to HEK293 cells. As to the kind of experiment: Luminescence of luciferases in lysed HEK293 cells (codon optimization). The format is cell-based, human. How it is done:
Codon optimized versions of IV (“IV opt” (SEQ ID NO: 22) and “IV optB” (SEQ ID NO: 23)) and 9B8 (“9B8 opt” (SEQ ID NO: 24) and “9B8 optB” (SEQ ID NO: 25)) were generated and cloned into pF4Ag by methods known in the art. HEK293 cells were plated in 96-well plates at 15,000 cells/well and grown overnight at 37° C. The following day, the cells were transiently transfected in 6 well replicates using TRANSIT®-LT1 Transfection Reagent (Minis Bio) with 100 ng of plasmid DNA encoding the codon optimized versions in pF4Ag and grown overnight at 37° C. HEK293 cells were also transfected with either pGL4.13 (Luc2/SV40) (Paguio et al., “pGL4 Vectors: A New Generation of Luciferase Reporter Vectors” Promega Notes, 89:7-10 (2005)) or pGL4.73 (hRL/SV40) (Id.) to normalize for differences in transfection efficiency. Ten ng/transfection or 10% of the total DNA transfected was used.
The OgLuc variants had higher luminescence compared to Luc2 and hRL.

Like-named read-outs stand apart in the source and are kept apart here.

T3 sequence (Q9GV45 other isoform, or with tags, fused parts or gaps with the stated changes): as the sequence (Q9GV45 other isoform, or with tags, fused parts or gaps with the stated changes) above

Regarding `CC(C)c1[nH]c(-c2ccccc2)cn2c(=O)c(Cc3ccc(O)cc3)nc1-2` [PBI-3841], in data set [1], the “Change in relative specificity (novel coelenterazine/native coelenterazine)” value is listed as 350,000X. Besides, the “Viability (normalized to vehicle (DMSO) control) (%)” value in data set [2] was 100%.

Take `Cc1ccc(C(=O)Nc2ccc(S(=O)(=O)O)c3cc(S(=O)(=O)O)cc(S(=O)(=O)O)c23)cc1NC(=O)c1cccc(NC(=O)Nc2cccc(C(=O)Nc3cc(C(=O)Nc4ccc(S(=O)(=O)O)c5cc(S(=O)(=O)O)cc(S(=O)(=O)O)c45)ccc3C)c2)c1` [Suramin]: the “inhibition of OgLuc” value in [3] is listed as “inhibitor of OgLuc”.

As to `O=c1c(Cc2ccc(O)cc2)nc2c(C3CC3)[nH]c(-c3ccccc3)cn1-2` [PBI-3897, 8-cyclopropyl-2-(4-hydroxybenzyl)-6-phenylimidazo[1,2-a]pyrazin-3(7H)-one], the “Change in relative specificity (novel coelenterazine/native coelenterazine)” value in data set [1] is listed as 80,000X. Further, the “Viability (normalized to vehicle (DMSO) control) (%)” value in data set [4] was 100%.

As for `O=c1c(Cc2ccco2)nc2c(Cc3ccccc3)[nH]c(-c3ccccc3)cn1-2` [PBI-3939, 8-benzyl-2-(furan-2-ylmethyl)-6-phenylimidazo[1,2-a]pyrazin-3(7H)-one], the “Stability (pH 8) (T90 in hrs)” value is 4.1 hrs. Also, the RLU in [5] is 9,808,880 RLU. The “Viability (normalized to vehicle (DMSO) control) (%)” value in data set [4] is 89%. In addition, in data set [6], the cell permeation entry was “can permeate cells in culture”. In [7], the Km (commonly the concentration of substrate that gives half-maximal velocity) is around 10 µM. Also, the “Ogluc (average luminescence generated by 9B8 opt)” value in data set [8] (20 μM substrate in DUAL-GLO STOP&GLO Reagent) was 2,996,940. Further, the “+/− coel” value in data set [8] (Ogluc signal relative to no coelenterazine control) is recorded as 207.

B1: Luc2: a firefly luciferase (protein, listed as Photinus pyralis)
chain: MEDAKNIKKGPAPFYPLEDGTAGEQLHKAMKRYALVPGTIAFTDAHIEVDITYAEYFEMSVRLAEAMKRYGLNTNHRIVVCSENSLQFFMPVLGALFIGVAVAPANDIYNERELLNSMGISQPTVVFVSKKGLQKILNVQKKLPIIQKIIIMDSKTDYQGFQSMYTFVTSHLPPGFNEYDFVPESFDRDKTIALIMNSSGSTGLPKGVALPHRTACVRFSHARDPIFGNQIIPDTAILSVVPFHHGFGMFTTLGYLICGFRVVLMYRFEEELFLRSLQDYKIQSALLVPTLFSFFAKSTLIDKYDLSNLHEIASGGAPLSKEVGEAVAKRFHLPGIRQGYGLTETTSAILITPEGDDKPGAVGKVVPFFEAKVVDLDTGKTLGVNQRGELCVRGPMIMSGYVNNPEATNALIDKDGWLHSGDIAYWDEDEHFFIVDRLKSLIKYKGYQVAPAELESILLQHPNIFDAGVAGLPDDDAGELPAAVVVLEHGKTMTEKEIVDYVASQVTTAKKLRGGVVFVDEVPKGLTGKLDARKIREILIKAKKGGKIAV
B1: the “luminescence relative to hRL” value in data set [9] is listed as “approximately 14 fold”.

(Values after patent publication US8809529B2, “Imidazo[1,2-α]pyrazine derivatives” (Promega Corporation, priority 2010, dated 2014).)
